From publication PMC7377361, “Pressurized DNA state inside herpes capsids—A novel antiviral target” (PLoS Pathogens, 2020)
Where no end group is shown, it is not given here.

Experiments:
[1] = tested on: DNA packaged in HSV-1 virion; assay: SAXS of HSV-1 virions with added compound; conditions: HSV-1 virions in TM-buffer, 37°C
Method: In the third SAXS screening step, we added the selected compounds to whole virions (enveloped capsids) in TM-buffer to verify that the compounds penetrate the lipid envelope, tegument protein layer, and capsid wall. […] Both C-capsids and virions have a well-resolved X-ray scattering peak corresponding to diffraction from packaged DNA[60] used for ds determination. […] During HSV-1 replication, it takes approximately 1 h for HSV-1 to adsorb to a cell surface and an additional 2–4 h for viral capsids to be transported, once fused with a cell membrane, to a cell nucleus where DNA is ejected from capsids. [HSV-1 replication dynamics in cell culture were verified separately and were also verified elsewhere[41]]. […] Compound concentrations in this SAXS measurements of virions were the same as in the SAXS measurements of C-capsids above, with virion concentration of 10^13 pfu/mL.
Vero cells were infected with an HSV-1 KOS strain overnight (21 h at 37°C) at a MOI of 0.1 PFU per cell. […] The concentrations of the compounds added to induce DNA condensation were calculated as described above.
All SAXS measurements of viral capsids were conducted at a concentration of 10^13 viral particles per mL (the highest technically achievable capsid concentration). […] Samples were measured in the temperature range of 15–37°C, and the sample temperature was controlled with a Peltier device with ± 0.5°C accuracy. […]

[2] = tested on: GFP-labeled HSV-1 virions; assay: Binding of GFP-HSV-1 virions to the cell surface (confocal FM); type: cell-based; conditions: compound added to cell culture, then GFP-labeled HSV-1 virions
From the text: This likely occurs due to compounds’ high positive charge leading to electrostatic binding of polycations to negatively charged glycoprotein receptors on the cell membrane, such as heparansulfate proteoglycans (HSPG)[75]. Optimizing compound permeability into cells can be facilitated by e.g. prodrug approach, lipid vesicle delivery, and nanoparticle delivery, as well as other pathways. Compound permeability will be optimized in the future. […] Furthermore, choosing a reconstituted nuclei system for the MOA-assay (as opposed to infecting a cell culture) provides the benefit of isolating the effect of the compound on the single step of viral DNA ejection while avoiding interference from other processes occurring within the cell during viral replication.
Vero cell monolayers grown on chamber slides (Lab-Tek) were infected with a GFP-expressing HSV-1(K26GFP) at a MOI of 0.1 PFU per cell. Vero cells were also incubated with the same virus that was previously treated with different concentrations of the compounds to condense the viral DNA. The concentration of the compounds was calculated as described above. […]
Supplementary file ppat.1008604.s003.pdf: S2 Fig Effect of the compounds on the binding of HSV-1 virions to the cell surface during infection. […] Cells were fixed at 2 hpi and assessed by the presence of a GFP virus signal (green). […]

Molecule | DNA-DNA interaxial spacing ds [1] | virus adsorption to the cell [2]
RRRRR [Arg^5+] | below 31 Å | prevents virus adsorption to the cell
NCCCN(CCCN)CCCCN(CCCN)CCCN [DAB-Am-4] | below 31 Å | prevents virus adsorption to the cell
